What was measured:
[1] = system: BALB/c-derived LNCs; assay: In vivo inhibition of proliferation of LNC of BALB/c mice immunized with mCDR1; conditions: maximum % inhibition; 200 μg s.c. in PBS concomitant with immunization; LNC tested ten days later
Experimental: To this end, BALB/c and SJL mice were immunized with mCDR1 and mCDR3, respectively. The immunizing murine peptides were injected (10 μg/mouse) in CFA intradermally in the hind footpads. Concomitant with the immunization, groups of BALB/c mice were injected subcutaneously (s.c.) with 200 μg in PBS of hCDR1 and groups of SJL mice were similarly injected with hCDR3. Ten days after the immunization, mice were sacrificed and their lymph nodes were harvested and the cells were tested for their ability to proliferate following triggering with the immunizing peptides. Briefly, LNCs of immunized mice (0.5×10^6/well) were cultured (in triplicates) in the presence of different concentrations (1-20 μg/well) of the murine immunizing peptides in enriched RPMI-1640 medium supplemented with 1% normal mouse serum. Following four days of incubation, ^3H-thymidine was added for additional 16 hours. Cells were then harvested and radioactivity was counted using a β-counter.
The inhibition was calculated based on the proliferation of LNCs of mice that were not treated with the inhibitory peptides hCDR1 and hCDR3. It can be seen that hCDR1 and hCDR3 were capable of inhibiting the proliferative responses to the immunizing murine CDR peptides.

[2] = system: (NZB×NZW)F1 mice; assay: Transfer of splenocytes of peptide-treated mice into (NZB×NZW)F1 mice with full-blown disease; format: in vivo
Source text: It was of importance to investigate whether the beneficial effects of treatment with hCDR1, that are manifested by the down-regulation of disease manifestations, can be transferred by spleen cells of treated mice. To this end, we have performed an experiment in which 8-month old (NZB×NZW)F1 mice, that suffer already from the full-blown lupus-like disease, were divided into 2 groups. Group 1 was not treated and mice of group 2 were transferred with 20×10^6 spleen cells of 3-month old (NZB×NZW)F1 mice that were injected 3 times (s.c., every other day) with 300 μg/mouse of hCDR1. All splenocytes were injected intraperitoneally. Mice were tested for anti-dsDNA autoantibody production, disease manifestations, and were sacrificed 4 weeks after cell transfer.
The experiment was repeated a few more times using revhCDR1 as control.

Sequence: GYYWSWIRQPPGKGEEWIG (Human) [hCDR1, 19-mer peptide based on the CDR1 of the heavy chain of the human 16/6Id mAb]
- % Inhibition of the proliferation of BALB/c-derived LNCs to mCDR1 [1]: 55%
- Proteinuria g/L ± SEM ([2]; Table 13, recipients of 20 × 10^6 spleen cells from mice treated 3 times s.c. with 300 μg/mouse, non-treated 15.07 ± 4.92): 0.97 ± 0.67 g/L
- I.C.D ± SEM ([2]; Table 13, recipients of 20 × 10^6 spleen cells from treated mice, non-treated 2.25 ± 0.47): 0.75 ± 0.47
- I.C.D ± SEM ([2]; Table 14 (repeat experiment), recipients of 20 × 10^6 spleen cells from treated mice, non-treated 2.3 ± 0.26): 1.33 ± 0.35
- Proteinuria g/L ± SEM ([2]; Table 14 (repeat experiment), recipients of 20 × 10^6 spleen cells from treated mice, non-treated 10.9 ± 3.05): 2.91 ± 1.6 g/L
- levels of anti-DNA antibodies ([2]; transfer of cells of treated mice, 4 weeks after cell transfer): mild reduction

From patent US7858738B2, “Synthetic human peptides and pharmaceutical compositions comprising them for the treatment of systemic lupus erythematosus” (Yeda Research and Development Co., Ltd., priority 2001, dated 2010)
